From BindingDB's records for doi:10.7270/Q20V8B80 (The Scripps Research Institute Molecular Screening Center, 2011)

target: T1, Caspase-7 (Homo sapiens, UniProt P55210); assay: potency of procaspase-7 enzyme activation – biochemical, absorbance, human, dual procaspase-3/-7 activator project, dose response (AID 504330)
T1 sequence (P55210 whole entry): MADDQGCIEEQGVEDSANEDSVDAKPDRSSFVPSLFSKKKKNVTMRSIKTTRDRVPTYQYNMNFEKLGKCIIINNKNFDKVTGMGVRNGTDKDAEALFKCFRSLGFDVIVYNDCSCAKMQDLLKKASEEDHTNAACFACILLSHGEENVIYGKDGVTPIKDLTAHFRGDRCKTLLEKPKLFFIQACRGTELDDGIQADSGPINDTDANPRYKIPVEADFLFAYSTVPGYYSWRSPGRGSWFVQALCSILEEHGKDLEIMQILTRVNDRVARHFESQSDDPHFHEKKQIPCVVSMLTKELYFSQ

SMILES	EC50
COc1ccccc1-n1c(O)c2n(-c3ccccc3)[nH]c(C(=O)c3ccccc3)c-2c1=O	> 85.3 µM
COC(=O)c1[nH]n(-c2ccc(Cl)cc2)c2c(O)n(-c3ccccc3OC)c(=O)c1-2 [1-(4-Chloro-phenyl)-5-(2-methoxy-phenyl)-4,6-dioxo-1,3a,4,5,6,6a-hexahydro-pyrrolo[3,4-c]pyrazole-3-carboxylic acid methyl ester]	> 85.3 µM
O=C(c1ccccc1)c1[nH]n(-c2ccccc2)c2c(O)n(-c3ccccc3)c(=O)c1-2 [3-benzoyl-1,5-diphenyl-3a,6a-dihydropyrrolo[3,4-c]pyrazole-4,6-dione]	> 85.3 µM
CCOC(=O)C(C#N)C=Nc1cc(OC)ccc1OC (configuration not stated) [(E)-2-Cyano-3-(2,5-dimethoxy-phenylamino)-acrylic acid ethyl ester]	> 85.3 µM
C=CC=Nc1c(Cl)c(O)n(-c2cccc(Cl)c2Cl)c1O [MLS000533809]	> 85.3 µM
Cc1[nH]nc2c1C(c1c[nH]c3ccccc13)C(C#N)C(=N)O2 (configuration not stated) [MLS001030009]	27.8 µM
CCOc1ccc(NC=C2C(=O)CC(c3ccco3)CC2=O)cc1 (configuration not stated) [SMR000268302]	> 85.3 µM
